Patent US8883745B2, “C—glycolipids with enhanced Th-1 profile” (New York University, priority 2006, dated 2014)

Columns and labels:
Format in all cases: in vivo
IFN-γ [1] = assay: IFN-γ levels in sera upon i.v. glycolipid administration to BALB/c mice (ELISA); set-up: IFN-γ levels, test 1 / IFN-γ levels, test 2 / IFN-γ levels, average / IFN-γ levels, Total: unit not given here; settings: BALB/c; for IFN-γ/IL-4 (BALB/c): ratio calculated from Tables 1-6; for IFN-γ levels, average / IFN-γ levels, test 1 / IFN-γ levels, test 2 / IFN-γ levels, Total: serum; for IFN-γ levels, Total: total over hours 0-72
Summary of the method: (§1)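 Female C57BL/6 and BALB/c mice, 5–6 weeks old, received 1 μg glycolipid i.v. in 200 μL PBS; PBS alone served as control. Sera taken at 0, 2, 6, 12, 24, 48 and 72 h were diluted 1:10 and assayed by sandwich ELISA (TMB, A450) against known standards.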

IFN-γ [2] = assay: IFN-γ levels in sera upon i.v. glycolipid administration to C57BL/6 mice (ELISA); set-up: IFN-γ levels, test 1 / IFN-γ levels, test 2 / IFN-γ levels, average / IFN-γ levels, Total / IFN-γ (B6): unit not given here; settings: for IFN-γ/IL-4 (B6): C57BL/6, ratio calculated from Tables 1-6; for IFN-γ levels, average / IFN-γ levels, test 1 / IFN-γ levels, test 2 / IFN-γ levels, Total: C57BL/6, serum; for IFN-γ levels, Total: total over hours 0-72
Summary of the method: as §1

IL-12 = IL-12 levels in sera upon i.v. glycolipid administration to C57BL/6 mice (ELISA); set-up: IL-12 levels, test 1 / IL-12 levels, test 2 / IL-12 levels, average / IL-12 levels, Total: unit not given here; settings: for IL-12/IL-4 (B6): C57BL/6, ratio calculated from Tables 1-6; for IL-12 levels, average / IL-12 levels, test 1 / IL-12 levels, test 2 / IL-12 levels, Total: C57BL/6, serum; for IL-12 levels, Total: total over hours 0-72
Summary of the method: as §1

IL-4 = IL-4 levels in sera upon i.v. glycolipid administration to BALB/c mice (ELISA); set-up: unit not given here; settings: for IL-4 level, Total: total over hours 0-72
Summary of the method: as §1

CCCCCCCCCCCCCCCCCCCCCCCCCC(=O)N[C@@H](CC[C@H]1O[C@H](CO)[C@H](O)[C@H](O)[C@H]1O)[C@H](O)[C@H](O)CCCCCCCCCCCCCC [CRONY, reference compound]
IFN-γ/IL-4 (BALB/c) (IFN-γ [1]): 34
IFN-γ levels, average (IFN-γ [1]; hour 0): 27
IFN-γ levels, test 1 (IFN-γ [1]; hour 0): 27
IFN-γ levels, test 2 (IFN-γ [1]; hour 0): 27
IFN-γ levels, average (IFN-γ [1]; hour 2): 150
IFN-γ levels, test 1 (IFN-γ [1]; hour 2): 122
IFN-γ levels, test 2 (IFN-γ [1]; hour 2): 178
IFN-γ levels, average (IFN-γ [1]; hour 6): 3075.5
IFN-γ levels, test 1 (IFN-γ [1]; hour 6): 3114
IFN-γ levels, test 2 (IFN-γ [1]; hour 6): 3037
IFN-γ levels, average (IFN-γ [1]; hour 12): 5611
IFN-γ levels, test 1 (IFN-γ [1]; hour 12): 6314
IFN-γ levels, test 2 (IFN-γ [1]; hour 12): 4908
IFN-γ levels, average (IFN-γ [1]; hour 24): 10680
IFN-γ levels, test 1 (IFN-γ [1]; hour 24): 11900
IFN-γ levels, test 2 (IFN-γ [1]; hour 24): 9460
IFN-γ levels, average (IFN-γ [1]; hour 48): 334
IFN-γ levels, test 1 (IFN-γ [1]; hour 48): 320
IFN-γ levels, test 2 (IFN-γ [1]; hour 48): 348
IFN-γ levels, average (IFN-γ [1]; hour 72): 59.5
IFN-γ levels, test 1 (IFN-γ [1]; hour 72): 50
IFN-γ levels, test 2 (IFN-γ [1]; hour 72): 69
IFN-γ levels, Total (IFN-γ [1]): 19938
IFN-γ/IL-4 (B6) (IFN-γ [2]): 17
IFN-γ levels, average (IFN-γ [2]; hour 0): 31
IFN-γ levels, test 1 (IFN-γ [2]; hour 0): 31
IFN-γ levels, test 2 (IFN-γ [2]; hour 0): 31
IFN-γ levels, average (IFN-γ [2]; hour 2): 355.5
IFN-γ levels, test 1 (IFN-γ [2]; hour 2): 359
IFN-γ levels, test 2 (IFN-γ [2]; hour 2): 352
IFN-γ levels, average (IFN-γ [2]; hour 6): 1094.5
IFN-γ levels, test 1 (IFN-γ [2]; hour 6): 1083
IFN-γ levels, test 2 (IFN-γ [2]; hour 6): 1106
IFN-γ levels, average (IFN-γ [2]; hour 12): 2512.5
IFN-γ levels, test 1 (IFN-γ [2]; hour 12): 2667
IFN-γ levels, test 2 (IFN-γ [2]; hour 12): 2358
IFN-γ levels, average (IFN-γ [2]; hour 24): 6589.5
IFN-γ levels, test 1 (IFN-γ [2]; hour 24): 6511
IFN-γ levels, test 2 (IFN-γ [2]; hour 24): 6668
IFN-γ levels, average (IFN-γ [2]; hour 48): 777.5
IFN-γ levels, test 1 (IFN-γ [2]; hour 48): 798
IFN-γ levels, test 2 (IFN-γ [2]; hour 48): 757
IFN-γ levels, average (IFN-γ [2]; hour 72): 290
IFN-γ levels, test 1 (IFN-γ [2]; hour 72): 279
IFN-γ levels, test 2 (IFN-γ [2]; hour 72): 301
IFN-γ levels, Total (IFN-γ [2]): 11653
IFN-γ (B6) (IFN-γ [2]; C57BL/6, total from Table 2): 11652
IL-12/IL-4 (B6) (IL-12): 2
IL-12 levels, average (IL-12; hour 0): 5
IL-12 levels, test 1 (IL-12; hour 0): 5
IL-12 levels, test 2 (IL-12; hour 0): 5
IL-12 levels, average (IL-12; hour 2): 107
IL-12 levels, test 1 (IL-12; hour 2): 0
IL-12 levels, test 2 (IL-12; hour 2): 214
IL-12 levels, average (IL-12; hour 6): 472.5
IL-12 levels, test 1 (IL-12; hour 6): 560
IL-12 levels, test 2 (IL-12; hour 6): 385
IL-12 levels, average (IL-12; hour 12): 675.5
IL-12 levels, test 1 (IL-12; hour 12): 630
IL-12 levels, test 2 (IL-12; hour 12): 721
IL-12 levels, average (IL-12; hour 24): 117.5
IL-12 levels, test 1 (IL-12; hour 24): 235
IL-12 levels, test 2 (IL-12; hour 24): 0
IL-12 levels, average (IL-12; hour 48): 0
IL-12 levels, test 1 (IL-12; hour 48): 0
IL-12 levels, test 2 (IL-12; hour 48): 0
IL-12 levels, average (IL-12; hour 72): 0
IL-12 levels, test 1 (IL-12; hour 72): 0
IL-12 levels, test 2 (IL-12; hour 72): 0
IL-12 levels, Total (IL-12): 1379
IL-4 level, average (IL-4; hour 0): 27
IL-4 level, test 1 (IL-4; hour 0): 27
IL-4 level, test 2 (IL-4; hour 0): 27
IL-4 level, average (IL-4; hour 2): 262.5
IL-4 level, test 1 (IL-4; hour 2): 264
IL-4 level, test 2 (IL-4; hour 2): 261
IL-4 level, average (IL-4; hour 6): 87
IL-4 level, test 1 (IL-4; hour 6): 80
IL-4 level, test 2 (IL-4; hour 6): 94
IL-4 level, average (IL-4; hour 12): 49
IL-4 level, test 1 (IL-4; hour 12): 45
IL-4 level, test 2 (IL-4; hour 12): 53
IL-4 level, average (IL-4; hour 24): 47.5
IL-4 level, test 1 (IL-4; hour 24): 49
IL-4 level, test 2 (IL-4; hour 24): 46
IL-4 level, average (IL-4; hour 48): 46.5
IL-4 level, test 1 (IL-4; hour 48): 45
IL-4 level, test 2 (IL-4; hour 48): 48
IL-4 level, average (IL-4; hour 72): 67
IL-4 level, test 1 (IL-4; hour 72): 67
IL-4 level, test 2 (IL-4; hour 72): 67
IL-4 level, Total (IL-4): 588

CCCCCCCCCCCCCCCCCCCCCCCCCC(=O)N[C@@H](CO[C@H]1O[C@H](CO)[C@H](O)[C@H](O)[C@H]1O)[C@H](O)[C@H](O)CCCCCCCCCCCCCC [KRN, (2S,3S,4R)-1-O-(α-D-galactopyranosyl)-2-(N-hexacosanoylamino)-1,3,4-,-octadecanetriol, reference compound]
IFN-γ/IL-4 (BALB/c) (IFN-γ [1]): 10
IFN-γ levels, average (IFN-γ [1]; hour 0): 27
IFN-γ levels, test 1 (IFN-γ [1]; hour 0): 27
IFN-γ levels, test 2 (IFN-γ [1]; hour 0): 27
IFN-γ levels, average (IFN-γ [1]; hour 2): 945
IFN-γ levels, test 1 (IFN-γ [1]; hour 2): 841
IFN-γ levels, test 2 (IFN-γ [1]; hour 2): 1049
IFN-γ levels, average (IFN-γ [1]; hour 6): 4752.5
IFN-γ levels, test 1 (IFN-γ [1]; hour 6): 4170
IFN-γ levels, test 2 (IFN-γ [1]; hour 6): 5335
IFN-γ levels, average (IFN-γ [1]; hour 12): 8393.5
IFN-γ levels, test 1 (IFN-γ [1]; hour 12): 7996
IFN-γ levels, test 2 (IFN-γ [1]; hour 12): 8791
IFN-γ levels, average (IFN-γ [1]; hour 24): 6740
IFN-γ levels, test 1 (IFN-γ [1]; hour 24): 6497
IFN-γ levels, test 2 (IFN-γ [1]; hour 24): 6983
IFN-γ levels, average (IFN-γ [1]; hour 48): 112.5
IFN-γ levels, test 1 (IFN-γ [1]; hour 48): 86
IFN-γ levels, test 2 (IFN-γ [1]; hour 48): 139
IFN-γ levels, average (IFN-γ [1]; hour 72): 36
IFN-γ levels, test 1 (IFN-γ [1]; hour 72): 36
IFN-γ levels, test 2 (IFN-γ [1]; hour 72): 36
IFN-γ levels, Total (IFN-γ [1]): 21008
IFN-γ/IL-4 (B6) (IFN-γ [2]): 3
IFN-γ levels, average (IFN-γ [2]; hour 0): 31
IFN-γ levels, test 1 (IFN-γ [2]; hour 0): 31
IFN-γ levels, test 2 (IFN-γ [2]; hour 0): 31
IFN-γ levels, average (IFN-γ [2]; hour 2): 874.5
IFN-γ levels, test 1 (IFN-γ [2]; hour 2): 938
IFN-γ levels, test 2 (IFN-γ [2]; hour 2): 811
IFN-γ levels, average (IFN-γ [2]; hour 6): 1919
IFN-γ levels, test 1 (IFN-γ [2]; hour 6): 1811
IFN-γ levels, test 2 (IFN-γ [2]; hour 6): 2027
IFN-γ levels, average (IFN-γ [2]; hour 12): 5352.5
IFN-γ levels, test 1 (IFN-γ [2]; hour 12): 5179
IFN-γ levels, test 2 (IFN-γ [2]; hour 12): 5526
IFN-γ levels, average (IFN-γ [2]; hour 24): 2216
IFN-γ levels, test 1 (IFN-γ [2]; hour 24): 2214
IFN-γ levels, test 2 (IFN-γ [2]; hour 24): 2218
IFN-γ levels, average (IFN-γ [2]; hour 48): 126
IFN-γ levels, test 1 (IFN-γ [2]; hour 48): 252
IFN-γ levels, test 2 (IFN-γ [2]; hour 48): 0
IFN-γ levels, average (IFN-γ [2]; hour 72): 166
IFN-γ levels, test 1 (IFN-γ [2]; hour 72): 332
IFN-γ levels, test 2 (IFN-γ [2]; hour 72): 0
IFN-γ levels, Total (IFN-γ [2]): 10686
IL-12/IL-4 (B6) (IL-12): 0.3
IL-12 levels, average (IL-12; hour 0): 5
IL-12 levels, test 1 (IL-12; hour 0): 5
IL-12 levels, test 2 (IL-12; hour 0): 5
IL-12 levels, average (IL-12; hour 2): 0
IL-12 levels, test 1 (IL-12; hour 2): 0
IL-12 levels, test 2 (IL-12; hour 2): 0
IL-12 levels, average (IL-12; hour 6): 1044.5
IL-12 levels, test 1 (IL-12; hour 6): 1116
IL-12 levels, test 2 (IL-12; hour 6): 973
IL-12 levels, average (IL-12; hour 12): 195
IL-12 levels, test 1 (IL-12; hour 12): 174
IL-12 levels, test 2 (IL-12; hour 12): 216
IL-12 levels, average (IL-12; hour 24): 0
IL-12 levels, test 1 (IL-12; hour 24): 0
IL-12 levels, test 2 (IL-12; hour 24): 0
IL-12 levels, average (IL-12; hour 48): 61.5
IL-12 levels, test 1 (IL-12; hour 48): 0
IL-12 levels, test 2 (IL-12; hour 48): 123
IL-12 levels, average (IL-12; hour 72): 132.5
IL-12 levels, test 1 (IL-12; hour 72): 101
IL-12 levels, test 2 (IL-12; hour 72): 164
IL-12 levels, Total (IL-12): 1440
IL-4 level, average (IL-4; hour 0): 27
IL-4 level, test 1 (IL-4; hour 0): 27
IL-4 level, test 2 (IL-4; hour 0): 27
IL-4 level, average (IL-4; hour 2): 1690
IL-4 level, test 1 (IL-4; hour 2): 1809
IL-4 level, test 2 (IL-4; hour 2): 1571
IL-4 level, average (IL-4; hour 6): 204
IL-4 level, test 1 (IL-4; hour 6): 214
IL-4 level, test 2 (IL-4; hour 6): 194
IL-4 level, average (IL-4; hour 12): 89
IL-4 level, test 1 (IL-4; hour 12): 78
IL-4 level, test 2 (IL-4; hour 12): 100
IL-4 level, average (IL-4; hour 24): 50.5
IL-4 level, test 1 (IL-4; hour 24): 51
IL-4 level, test 2 (IL-4; hour 24): 50
IL-4 level, average (IL-4; hour 48): 44
IL-4 level, test 1 (IL-4; hour 48): 46
IL-4 level, test 2 (IL-4; hour 48): 42
IL-4 level, average (IL-4; hour 72): 12
IL-4 level, test 1 (IL-4; hour 72): 12
IL-4 level, test 2 (IL-4; hour 72): 12
IL-4 level, Total (IL-4): 2117
